This is an account of results in paper PMC6400584, “Activation mechanism of ATP-sensitive K^+ channels explored with real-time nucleotide binding” (eLife, 2019).

As usually defined, the IC50 is the point on the concentration scale where inhibition reaches its midpoint. A word on the EC50: it is the midpoint of the concentration-response curve.

Assay [1] deals with SUR1-T1397*/Kir6.2. The experiment in a line: Current inhibition in inside-out patches in the absence of Mg2+. It is filed as biochemical, Homo sapiens. On the procedure:
(§1) Currents were recorded from inside-out membrane patches excised from transfected HEK-293T cells. Pipettes were pulled to a resistance of 1–5 MΩ and filled with an extracellular solution containing (in mM) 140 KCl, 1.2 MgCl2, 2.6 CaCl2, and 10 HEPES, pH 7.4 or 140 KCl, 1 EGTA, 10 HEPES, pH 7.3. The intracellular (bath) solutions contained either (in mM) 107 KCl, 2 MgCl2, 1 CaCl2, 10 EGTA, and 10 HEPES, pH 7.2 for experiments showing nucleotide-dependent activation or 140 KCl, 1 EDTA, 1 EGTA, 10 HEPES pH 7.3 for experiments showing nucleotide-dependent inhibition. Nucleotides were added as indicated. Patches were perfused with an 8-channel µFlow perfusion system. Data were acquired at a holding potential of −60 mV using an Axopatch 200B amplifier and Digidata 1322A digitizer with pClamp 9.0 software (Molecular Devices). Currents were digitized at 10 kHz and low-pass filtered at 1 kHz. KATP channels run down in excised patches (reviewed by Proks et al.) ([Proks et al., 2016]). For inhibitory concentration-response relationships, rundown was corrected by alternating test nucleotide solutions with nucleotide-free (control) solutions and expressing the test currents as a fraction of the average of the control currents before and after the test solution. […]

Assay [2] addresses T1, SUR1-T1397*/Kir6.2 (Homo sapiens, UniProt Q09428, T1397X).
T1 construct: confirmed that >95% of SUR1-T1397* was full length; expressed in transfected cells; host or cells: HEK-293T
Briefly: FRET binding of TNP-nucleotides to ANAP-labeled KATP in unroofed membrane fragments. As to conditions: absence of Mg2+. The protocol: (§2) Unroofed membranes were prepared using a modification of a protocol from the Heuser laboratory ([Heuser, 2000]; [Usukura et al., 2012]; [Zagotta et al., 2016]). Briefly, a coverslip containing adherent cells was removed from the cell culture medium and a small piece (0.5–1 cm) was broken off using jewelers forceps (#5) and washed in phosphate buffered saline (PBS, Thermo Fisher Scientific) diluted 1:3 in deionized water. Cells were exposed 3 × 10 s to a solution of 0.01% poly-L-lysine (Sigma) with intervening washes in diluted PBS to adhere them more firmly to the coverslips. The coverslip fragment was then placed in a 30 mm culture dish filled with 2–3 mL of 1/3X PBS and sonicated very briefly (~100 ms) using a probe sonicator (Vibra-cell; Newtown, CT), leaving behind adherent plasma membrane and sometimes additional cellular material. The unroofed fragments in our experiments were sometimes visible under bright-field illumination, a potential result of our modified ‘unroofing’ procedure. Morphologically, such cell fragments resemble the ‘partially unroofed’ cells identified by Usukura et al. ([Usukura et al., 2012]) Cells cultured on poly-D-lysine coated FluoroDishes were unroofed in diluted PBS with no additional poly-L-lysine treatment. This procedure yielded a higher percentage of completely unroofed plasma membranes (i.e. nearly invisible with brightfield illumination).
(§3) Unroofed membrane fragments were imaged directly on FluoroDishes (FD35-PDL-100, World Precision Instruments) or on broken coverslips placed in a FluoroDish (FD3510, World Precision instruments) using a Nikon TE2000-U microscope equipped with a 40x (S Fluor, 1.3 NA; Nikon, Kingston Upon Thames, UK) or 100x (Apo TIRF, 1.49 NA, Nikon) oil-immersion objective and low-fluorescence immersion oil (MOIL-30, Olympus; Southend-on-Sea, UK) or a 60x water immersion objective (Plan Apo VC, 1.20 NA, Nikon). ANAP was excited using a ThorLabs LED source (LED4D067) at 385 nm connected to the microscope using a liquid light guide in series with a 390/18 nm band-pass filter (MF390-18, ThorLabs; Newton, NJ) and MD416 dichroic (ThorLabs). For imaging, emitted light was filtered through a 479/40 nm band-pass filter (MF479-40, ThorLabs). GFP-tagged constructs were imaged using a similar setup with excitation at 490 nm, a 480/40 band-pass excitation filter (Chroma; Bellows Falls, VT), a DM505 dichroic mirror (Chroma), and 510 nm long-pass emission filter (Chroma). All images were acquired using a PIXIS 400B CCD camera (Princeton Instruments; Trenton, NJ). For spectroscopy, ANAP was excited as above, but emitted light was passed through a 400 nm long-pass filter (FEL0400, ThorLabs) and directed through the slit of an Isoplane 160 spectrometer (300 g/mm grating; Princeton Instruments) in series with the camera. The acquired images retained spatial information in the y-dimension, with the x-dimension replaced by wavelength (Figure 1—figure supplement 1a). Exposure times were typically 100 ms for brightfield images, 1–10 s for steady-state spectra and 1–5 s for time-course experiments.
(§4) To prevent accumulation of fluorescent nucleotides in the bath, FluoroDishes were perfused with either (in mM) 140 KCl, 20 NaCl, 10 MgCl2, 10 HEPES pH 7.2 with NaOH or 140 KCl, 20 NaCl, 1 EDTA, 10 HEPES pH 7.2 with NaOH using a peristaltic pump (Ismatec; Wertheim, Germany). Unroofed membranes were directly perfused with nucleotides using an 8-channel µFlow perfusion system (ALA Scientific Instruments; Farmingdale, NY). Solution change with the µFlow was rapid (τ = 0.73 s±0.02 s, n=5) as measured from single exponential fits to wash-out of 50 µM tetramethylrhodamine-5-maleimide (TMRM) after switching to a solution with no TMRM. TMRM was excited with a 565 nm LED with a D540/25X band-pass filter (Chroma) and DM565 dichroic mirror (Chroma). Emitted light was collected through a D605/55M band-pass filter (Chroma). […]

In assay [3] the target is T2, SUR1-Y1353*,K2A/Kir6.2 (Homo sapiens, UniProt Q09428, K1384A/Y1353X).
T2 construct: the signals we measured (fluorescence) were derived solely from full-length (i.e. ANAP-labeled) channels; expressed in transfected cells; host or cells: HEK-293T
The assay is described as above. As to conditions: absence of Mg2+. The protocol: as §2, §3, §4

The target of assay [4] is SUR1-Y1353*/Kir6.2 (NBS2 of SUR1) (Homo sapiens, UniProt Q09428, Y1353X). Described as above. The protocol: as §2, §3, §4
In another assay the test system is SUR1-Y1353*/Kir6.2. Briefly: Nucleotide wash-out (dissociation) time course. It is filed as binding, Homo sapiens. As to conditions: for t0.5 (time to 50% dissociation): no drug, mean ± SD of individual fits; for reduction of off-rate in the presence of Mg2+ (fold / factor): with vs without Mg2+; for τ of MgTNP-ADP dissociation in the presence of drug / τ of MgTNP-ATP dissociation in the presence of drug: 500 µM tolbutamide or 340 µM diazoxide.

The target in a further assay is T3, SUR1/Kir6.2-G334D (Homo sapiens, UniProt Q09428).
T3 construct: expressed in transfected cells; host or cells: HEK-293T
Briefly: Current activation in inside-out patches. It is filed as biochemical. On the procedure: as §1

Assay [5] addresses T2, SUR1-Y1353*,K2A/Kir6.2. The experiment in a line: Nucleotide wash-out (dissociation) time course. It is filed as binding. The note with it: absence of Mg2+.
From the text: as §4, with “[…] Solution exchange” for “Emitted light”, “also monitored during experiments with TNP-nucleotides by examining the emission spectrum of” for “collected through”, “background region in each image.” for “D605/55M band-pass filter (Chroma).”
To measure the time course of nucleotide unbinding, the fluorescence at the TNP-nucleotide peak (usually around 560 nm) was plotted as a function of time after exchanging to a zero-nucleotide solution, as following the time course of the rise in ANAP fluorescence was complicated by photobleaching. After complete wash out of nucleotides, the fluorescence at 560 nm was non-zero, as the shoulder of the ANAP emission spectrum extends into the range of wavelengths at which TNP-nucleotides emit. […]

The mark [6] stands for this setting: mean ± SEM of fits to individual experiments.
[7] abbreviates: absence of Mg2+ (1 mM EDTA), mean ± SEM of fits to individual experiments.
Where [8] appears, read: absence of Mg2+, fit to combined data.

Where two headings read alike, the source gives them in different places.

Consider `Nc1ncnc2c1ncn2[C@@H]1O[C@H](COP(=O)(O)OP(=O)(O)OP(=O)(O)O)[C@@H](O)[C@H]1O` [ATP], for which the IC50 in the assay on SUR1-T1397*/Kir6.2 [1] (Equation 4 fit to combined data) was 49.2 µM; in the assay with SUR1-T1397*/Kir6.2 [1] (mean ± SEM of fits of Equation 4 to individual experiments) it was 53.9 ± 9.4 µM.
Turning to `Nc1ncnc2c1ncn2[C@@H]1O[C@H](COP(=O)(O)OP(=O)(O)OP(=O)(O)O)[C@H]2OC3(O[C@H]21)C([N+](=O)[O-])=CC(=[N+]([O-])[O-])C=C3[N+](=O)[O-]` (some centres unmarked) [TNP-ATP, trinitrophenyl-ATP], the EC50 on SUR1-T1397*/Kir6.2 [2] (fit to combined data) was determined as 4.8 µM; on SUR1-T1397*/Kir6.2 [2] (setting [6]), 4.7 ± 0.8 µM; in assay [4] (EC50, absence of Mg2+ (1 mM EDTA), mean ± SEM of fits to individual experiments) it was 12.8 ± 5.6 µM; in assay [4] (EC50, absence of Mg2+, fit to combined data), 8.5 µM. The Emax at SUR1-T1397*/Kir6.2 [2] (fit to combined data) was 0.94 ± 0.02; on SUR1-T1397*/Kir6.2 [2] (setting [6]) it was 0.94 ± 0.01; at SUR1-Y1353*,K2A/Kir6.2 [3] (fit to combined data), 0.87 ± 0.03; on SUR1-Y1353*,K2A/Kir6.2 [3] (setting [6]), 0.90 ± 0.03; in assay [4] (setting [7]), 0.83 ± 0.03; in assay [4] (setting [8]) it was 0.84 ± 0.04. Moreover, the h at SUR1-T1397*/Kir6.2 [2] (fit to combined data) is listed as 0.8 ± 0.1; on SUR1-T1397*/Kir6.2 [2] (setting [6]), 0.83 ± 0.09; on SUR1-Y1353*,K2A/Kir6.2 [3] (fit to combined data), 0.9 ± 0.2; on SUR1-Y1353*,K2A/Kir6.2 [3] (setting [6]) it was 0.98 ± 0.13; in assay [4] (setting [7]), 0.88 ± 0.06; in assay [4] (setting [8]), 0.8 ± 0.1. In the assay with SUR1-Y1353*/Kir6.2 (absence of Mg2+), the “t0.5 (time to 50% dissociation)” value was 4.8 ± 1.5 s. In the assay on SUR1-Y1353*/Kir6.2 (setting [8]), the “A1 of dissociation (bi-exponential amplitude)” value stood at 0.65 ± 0.06. Further, in the assay with SUR1-Y1353*/Kir6.2 (setting [8]), the “A2 of dissociation (bi-exponential amplitude)” value worked out at 0.35 ± 0.06. Moreover, in the assay with SUR1-Y1353*/Kir6.2 (setting [8]), the “τ1 of dissociation (bi-exponential)” value is 4.5 s. In addition, the “τ2 of dissociation (bi-exponential)” value with SUR1-Y1353*/Kir6.2 (setting [8]) amounted to 28.2 s. Further, the “reduction of off-rate in the presence of Mg2+ (fold / factor)” value with SUR1-Y1353*/Kir6.2 amounted to 2.2.
Regarding `CC1=NS(=O)(=O)c2cc(Cl)ccc2N1` [diazoxide], in the assay with SUR1-Y1353*/Kir6.2 (fit to combined data), the “τ of MgTNP-ADP dissociation in the presence of drug” value came to 52.6 s and the “τ of MgTNP-ATP dissociation in the presence of drug” value was found to be 60.5 s.
Regarding `CCCCNC(=O)NS(=O)(=O)c1ccc(C)cc1` [tolbutamide], in the assay on SUR1-Y1353*/Kir6.2 (fit to combined data), the “τ of MgTNP-ADP dissociation in the presence of drug” value is on record as 6.4 s and the “τ of MgTNP-ATP dissociation in the presence of drug” value was 6.3 s. In addition, the effect on currents entry at SUR1/Kir6.2-G334D was “inhibited”.
In the case of trinitrophenyl-ADP [TNP-ADP], the EC50 came out at 5.6 µM on SUR1-T1397*/Kir6.2 [2] (fit to combined data); 6.3 ± 2.3 µM on SUR1-T1397*/Kir6.2 [2] (setting [6]); 4.4 µM at SUR1-Y1353*,K2A/Kir6.2 [3] (fit to combined data); 5 ± 1 µM at SUR1-Y1353*,K2A/Kir6.2 [3] (setting [6]); 6.8 ± 1.3 µM in assay [4] (absence of Mg2+ (1 mM EDTA), mean ± SEM of fits to individual experiments, read-out: EC50); 6.1 µM in assay [4] (absence of Mg2+, fit to combined data, read-out: EC50). Also, the Emax at SUR1-T1397*/Kir6.2 [2] (fit to combined data) is listed as 0.98 ± 0.05; on SUR1-T1397*/Kir6.2 [2] (setting [6]), 0.98 ± 0.02; at SUR1-Y1353*,K2A/Kir6.2 [3] (fit to combined data), 0.91 ± 0.02; at SUR1-Y1353*,K2A/Kir6.2 [3] (setting [6]) it was 0.92 ± 0.02; in assay [4] (setting [7]) it was 0.95 ± 0.01; in assay [4] (setting [8]), 0.95 ± 0.02. The h at SUR1-T1397*/Kir6.2 [2] (fit to combined data) amounted to 0.7 ± 0.1; at SUR1-T1397*/Kir6.2 [2] (setting [6]) it was 0.84 ± 0.13; at SUR1-Y1353*,K2A/Kir6.2 [3] (fit to combined data) it was 0.9 ± 0.1; at SUR1-Y1353*,K2A/Kir6.2 [3] (setting [6]), 0.88 ± 0.05; in assay [4] (setting [7]), 0.79 ± 0.04; in assay [4] (setting [8]), 0.8 ± 0.1. Besides, the “effect of increasing concentration to 10 mM on amount of quenching” value in assay [4] (absence of Mg2+, n = 3, data not shown) is reported as “did not significantly change”. In addition, the “t0.5 (time to 50% dissociation)” value was found to be 2.9 ± 0.5 s in the assay with SUR1-Y1353*/Kir6.2 (absence of Mg2+) and 3.8 ± 1.0 s at SUR1-Y1353*,K2A/Kir6.2 [5] (mean ± SD). Besides, the figures for the “τ of dissociation (single exponential)” value in the assay with SUR1-Y1353*/Kir6.2 (setting [8]) and at SUR1-Y1353*,K2A/Kir6.2 [5] (fit to combined data) were 4.2 s and 5.4 s, respectively. Besides, the “reduction of off-rate in the presence of Mg2+ (fold / factor)” value in the assay on SUR1-Y1353*/Kir6.2 is reported as ~ 5.
